According to ChEMBL document CHEMBL1201862, “PubChem BioAssay data set” (2004):
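Following 48 hours of exposure in 96-well plates, responses at five concentrations were used to interpolate endpoints linearly. GI50: concentration for 50% inhibition of growth.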 Activity calls are given as the source filed them. No stated cut-off is given here; in the data, active = GI50 up to about 1.1 µM and inactive = higher.

What was measured:
Experiment in all cases: growth of human tumour cells (NCI), 48 h
OVCAR-8 = test system: OVCAR-8
MDA-N = test system: MDA-N
MCF7 = test system: MCF7
SNB-75 = test system: SNB-75
KM12 = test system: KM12
SNB-19 = test system: SNB-19
UACC-257 = test system: UACC-257
DU-145 = test system: DU-145
CCRF-CEM = test system: CCRF-CEM
SK-MEL-2 = test system: SK-MEL-2
NCI-H460 = test system: NCI-H460
HL-60 = test system: HL-60
UO-31 = test system: UO-31
SF-295 = test system: SF-295
HCT-116 = test system: HCT-116
OVCAR-5 = test system: OVCAR-5
IGROV-1 = test system: IGROV-1
SK-MEL-5 = test system: SK-MEL-5
Malme-3M = test system: Malme-3M
SR = test system: SR

| Compound | GI50 (OVCAR-8) | GI50 (MDA-N) | GI50 (MCF7) | GI50 (SNB-75) | GI50 (KM12) | GI50 (SNB-19) | GI50 (UACC-257) | GI50 (DU-145) | GI50 (CCRF-CEM) | GI50 (SK-MEL-2) | GI50 (NCI-H460) | GI50 (HL-60) | GI50 (UO-31) | GI50 (SF-295) | GI50 (HCT-116) | GI50 (OVCAR-5) | GI50 (IGROV-1) | GI50 (SK-MEL-5) | GI50 (Malme-3M) | GI50 (SR) |
| --- | --- | --- | --- | --- | --- | --- | --- | --- | --- | --- | --- | --- | --- | --- | --- | --- | --- | --- | --- | --- |
| O=C1C(Cl)=C(Nc2ccc(S(=O)(=O)Nc3ccccn3)cc2)C(=O)c2ccccc21 | 4.09 µM (inactive) | 6.46 µM (inactive) | 5.15 µM (inactive) | 7.91 µM (inactive) | 13.1 µM (inactive) | 16.4 µM (inactive) | 5 µM (inactive) | 7.91 µM (inactive) | 3.68 µM (inactive) | 5.7 µM (inactive) | 4.53 µM (inactive) | 3.3 µM (inactive) | 9.84 µM (inactive) | 15.3 µM (inactive) | 6.24 µM (inactive) | 17.9 µM (inactive) | 5.93 µM (inactive) | 4.4 µM (inactive) | 2.96 µM (inactive) | 3.03 µM (inactive) |
| CC1=C(Br)C(=O)C(C)=C(Br)C1=O.Cc1c(O)c(Br)c(C)c(O)c1Br | 1.93 µM (inactive) | 1.81 µM (inactive) | 1.96 µM (inactive) | 14.2 µM (inactive) | 19.4 µM (inactive) | 18.1 µM (inactive) | 1.6 µM (inactive) | 2.31 µM (inactive) | 0.216 µM (active) | 3.53 µM (inactive) | 6.71 µM (inactive) | 1.12 µM (active) | 1.85 µM (inactive) | 16.3 µM (inactive) | 1.69 µM (inactive) | 10.8 µM (inactive) | 7.83 µM (inactive) | 4.22 µM (inactive) | 2.1 µM (inactive) | 0.925 µM (active) |
| NC(=O)c1cnc2sc3ccccc3n2c1=O | > 100 µM (inactive) | > 100 µM (inactive) | > 100 µM (inactive) | > 100 µM (inactive) | > 100 µM (inactive) | > 100 µM (inactive) | > 100 µM (inactive) | > 100 µM (inactive) | > 100 µM (inactive) | > 100 µM (inactive) | > 100 µM (inactive) | > 100 µM (inactive) | 77.1 µM (inactive) | > 100 µM (inactive) | > 100 µM (inactive) | > 100 µM (inactive) | > 100 µM (inactive) | > 100 µM (inactive) | > 100 µM (inactive) | > 100 µM (inactive) |
| O=C(O)/C=N/NC(=S)NC1CCCCC1 | > 100 µM (inactive) | > 100 µM (inactive) | > 100 µM (inactive) | > 100 µM (inactive) | > 100 µM (inactive) | > 100 µM (inactive) | > 100 µM (inactive) | > 100 µM (inactive) | > 100 µM (inactive) | > 100 µM (inactive) | > 100 µM (inactive) | > 100 µM (inactive) | > 100 µM (inactive) | > 100 µM (inactive) | > 100 µM (inactive) | > 100 µM (inactive) | > 100 µM (inactive) | > 100 µM (inactive) | > 100 µM (inactive) | > 100 µM (inactive) |
| Cc1cnc2c(c1)C(=O)N(c1ccc(Oc3ccccc3)cc1)S2(=O)=O | > 100 µM (inactive) | > 100 µM (inactive) | > 100 µM (inactive) | > 100 µM (inactive) | > 100 µM (inactive) | > 100 µM (inactive) | > 100 µM (inactive) | > 100 µM (inactive) | > 100 µM (inactive) | > 100 µM (inactive) | > 100 µM (inactive) | > 100 µM (inactive) | > 100 µM (inactive) | > 100 µM (inactive) | > 100 µM (inactive) | > 100 µM (inactive) | 57.8 µM (inactive) | > 100 µM (inactive) | 67.1 µM (inactive) | > 100 µM (inactive) |
| C=C(C(=O)OC)N1C(=O)CC(C)C1=O (stereo not given) | 15.3 µM (inactive) | 14.2 µM (inactive) | 10.3 µM (inactive) | 17 µM (inactive) | 20.3 µM (inactive) | 21.4 µM (inactive) | 12.3 µM (inactive) | 15.8 µM (inactive) | 1.7 µM (inactive) | 16.9 µM (inactive) | 18.1 µM (inactive) | 1.37 µM (inactive) | 13.1 µM (inactive) | 29.1 µM (inactive) | 6.67 µM (inactive) | 15.1 µM (inactive) | 15.9 µM (inactive) | 16.9 µM (inactive) | 2.45 µM (inactive) | 2.59 µM (inactive) |
